Assay results as given in patent publication EP2518139A1, “Use of indirubin derivatives for producing pluripotent stem cells” (Universitätsklinikum Jena, priority 2011, dated 2012).
Entries after “also recorded” stand apart in the source; their conditions may differ.

Tests used:
[1] = test system: healthy cell lines; assay: MTT assay, healthy cell lines; assay type: cell-based; details: non-cancer cell lines
[2] = test system: Hek293T cells; assay: (iPS)-Colony formation and EMT in Hek293T; assay type: cell-based, human
Procedure: Cell culture: HeLa and Hek293T were cultured in DMEM (PAA) containing 10% FCS (PAA) and 1% PS (PAA). HFF (human foreskin fibroblasts) were cultured in DMEM containing 15% FCS and 1%PS. Mouse embryonic fibroblasts were cultured in DMEM containing 10% NCS (LifeTechnologies) and 1% PS. The cells were maintained under 5% CO2 at 37°C in a humidified atmosphere. The cells were treated with various compounds as indicated in context. The images were taken at indicated time points using a Keyence digital-microskop BZ-800.
(iPS)-Colony formation and spontaneous differentiation in HEK: 10^5 cells/well Hek 293T were seeded in a 12-well plate in 10% FCS with 1mL/well). Next day, the cells were treated with E738 (8µM). […] Afterwards, the cells were incubated further in the presence of 10% FCS and the medium was refreshed every 3 days. The spontaneous differentiation occurred after 10 days incubation.

SMILES: COc1ccc2c(c1)C(=C1Nc3ccccc3C1=NOCC(O)CO)C(=O)N2 (stereo not shown) [E738]
- toxicities towards healthy cell lines, lower than towards tumor cells [1]: 20 fold
- cell mobility (EMT) and cell dedifferentiation ([2]; Hek293T, 4 days treatment): enhances cell mobility (EMT) and induces cell dedifferentiation
- iPS-like (embryonic stem cell-like) colony formation ([2]; Hek 293T, E738 (8µM) 24h, floating cells washed and replated in 10% FCS for 3 days): embryonic stem cell-like colony appeared after 3 days; also recorded: iPS-like colonies were observed
- EMT ([2]; Hek 293T, E738 (8µM), 24h, 10% FCS): a clear EMT could be observed
